Source: patent publication US12108756B2, “Photodynamic method of inhibiting growth of a microbial plant pathogen” (priority 2019, dated 2024)

Experiments:
[1] = tested on: Escherichia coli (E. coli) bacteria (ATCC 25922); test: Photodynamic treatment of E. coli under blue LED light; colonies plated and reduction vs untreated control; format: cell-based; conditions: for % reduction: converted from log kill
Method: Tests were carried out with Escherichia coli (E. coli) bacteria (ATCC 25922) in which the organisms were exposed to varying test conditions. The light source for photoactivation was a blue LED light (HIGROW 2019) that was placed 7 cm from the container containing the E. coli. The photoactivator was riboflavin (Aldrich R7649, lot VVXBB4048V, purity 98.6%) at a concentration of 18 ppm. Copper sulfate was used at a concentration of 10 ppm (aqueous solution). The tests included a wetting agent Silwet® L-77 at a concentration of 0.0125%. Silwet® L-77 is a product of Helena Agri-Enterprises, LLC of Collierville, TN, and is a nonionic organosilicone surfactant co-polymer that has enhanced wetting and spreading characteristics when used in aqueous sprays. Silwet® L-77 has a CAS Registry Number of 27306-78-1. Each test was carried out for the prescribed time, which varied from 5 minutes to 30 minutes. At the end of the exposure time the bacteria were diluted and plated so that the colonies could be enumerated and the corresponding reduction determined by comparison with the untreated control.
We also carried out tests to evaluate the effect of light intensity. These tests used 10 ppm copper sulfate and 18 ppm riboflavin (aqueous solution) in a 15-minute exposure under the blue light, using neutral density filters to decrease the light intensity. The full light intensity at the 450 nm to 460 nm range was 353 W/m^2.

E. coli = E. coli kill with photosensitizers with and without copper under broad-spectrum Reptile Light; format: cell-based, Escherichia coli; conditions: for log reduction: Reptile Light 8,520 Lux (26 W/m2); for effectiveness as photosensitizer: as shown in Example 2, under the test conditions
Method: In this example we compare different photosensitizers (50 μM in water) in combination with and without copper sulfate. An agricultural adjuvant sticker spreader, Silwet® L-77 was also included at a 0.0125% concentration. The conditions experimental were the same as Example 1: E. coli as the test organism, using copper sulfate at 10 ppm, and a light exposure time of 30 minutes. However, in this test series we used a light source that reproduced the spectrum of sunlight, including UV. It is used to in terrariums for housing reptiles, some of which require a UV component in their light. It is referred to here as the Reptile Light (Zoo Med 2019).
In this example we also used the Reptile Light. In these tests the light intensity was 8,520 Lux, or 26 W/m2 (for comparison, this could be full daylight on a cloudy day, or a common light level in a greenhouse). […] Silwet (see Helena 2019) is an agricultural nonionic organosilicone surfactant adjuvant wetting and spreading agent commonly used with pesticides, also commonly known as a sticker spreader).
In this example we tested a commercial algicide product, Cutrine®, which contains copper ethanolamine (from the product label: Copper Ethanolamine Complex, Mixed (Mono CAS #14215-52-2 and Tri CAS #82027-59-6) 27.9%; OTHER INGREDIENTS 72.1% TOTAL 100.0% Metallic copper equivalent, 9%; Contains 0.909 lbs. of elemental copper per gallon) (EPA Reg. No. 8959-10). Copper ethanolamine is effective in keeping the copper salt in solution at neutral pH. The tests were done as above, under the reptile light for 30 minutes.
The above tests using CuSO4 at 10 ppm is equivalent to 3.98 ppm copper. We initially tested Cutrine® at a low and a high concentration, where the low concentration is adjusted to have approximately 3.98 ppm copper as before, and the high concentration is 39.8 ppm copper (same copper concentration as 100 ppm CuSO4). We tested them with and without 18 ppm riboflavin. Again, tests were run in triplicate.

[2] = tested on: Xanthomonas hortorum pv. pelargonii; test: Reduction of Xanthomonas hortorum pv. pelargonii leaf spots on geranium plants in greenhouse; format: in vivo; conditions: single spray 24 hours before inoculation, leaf spots counted two weeks after inoculation
[3] = 18 ppm alone, blue light, 30 minutes
[4] = 10 ppm + Silwet (0.0125%), 30 minutes
[5] = photosensitizer alone, 50 μM in water, Reptile Light, 30 minutes
[6] = photosensitizer alone, 50 μM in water, Reptile Light, 30 minutes, median (EY, RMP: average)
[7] = 10 ppm alone, blue light, 30 minutes

Compound	log reduction (E. coli; [4]) [log]	effectiveness as photosensitizer (E. coli)	% kill (E. coli; [5]) [%]	Log kill (E. coli; [6]) [Log]	other results
Cc1cc2nc3c(=O)[nH]c(=O)nc-3n(C[C@H](O)[C@H](O)[C@H](O)CO)c2cc1C [riboflavin]	0.15	most effective	23.26	0.115	log kill [1, 3]: 0.83 log; % reduction [1, 3]: 85.208%; log kill ([1]; 18 ppm, in the dark): did not produce any measurable kill; Log kill (E. coli; 18 ppm alone, reptile lamp, 30 minutes): 0.115 Log; log reduction (E. coli; 50 ppm, 1 hour): 1.6 log; log kill (E. coli; riboflavin alone, reptile light, 30 minutes, from previous test data): < 1 log; effectiveness against leaf spots [2]: only partially effective
riboflavin monophosphate [RMP]			3.17	0.042	
O=S(=O)([O-])[O-].[Cu+2] [copper sulfate]	0.13				log kill [1, 7]: 0.954 log; % reduction [1, 7]: 88.88%; log kill ([1]; 10 ppm, in the dark, 30 minutes): 0.226 log; % kill (E. coli; 10 ppm alone, reptile lamp, 30 minutes): 26.04%; Log kill (E. coli; 10 ppm alone, reptile lamp, 30 minutes, median value): 0.131 Log; log reduction (E. coli; 40 ppm, 30 minutes): 0.13 log
Eosin Y [EY]		effective	6.46	0.87	
O=C1OC2(c3ccccc31)c1cc(I)c(O)c(I)c1Oc1c2cc(I)c(O)c1I [ER, erythrosine]		effective	25.88	0.13	
O=C1OC2(c3cc(I)c(O)c(I)c3Oc3c2cc(I)c(O)c3I)c2c(Cl)c(Cl)c(Cl)c(Cl)c21 [RB, Rose Bengal]		effective	30.81	0.16	
